One assay relates to E. coli O0157:H7 EDL 933. The experiment in a line: Bacterial count in whey powder paste inoculated with E. coli O157:H7, with LAE added. The format is cell-based, Escherichia coli O157:H7. The conditions noted are these: whey powder paste pH 6.1-6.2; for bacterial count after 48 h as % of the value on addition: 800 mg of LAE/kg, 48 h storage at room temperature; for change of bacterial count versus control sample without LAE: LAE 200, 400 and 800 mg/kg, after 24 h, continued with longer storage at room temperature. How it is done: (§1) The invention is described in more detail by the examples below. In these examples partially desugared whey powder is used, a constituent of many feedstuffs which was set to the pH range of 6.1-6.2 which is favorable for the growth of many bacteria. The whey powder was made into a paste using aqueous buffer solution, so that together with the bacterial suspension in physiological saline a ratio of whey powder to water of approximately 2:1 resulted. LAE was added to the samples at concentrations of 200, 400 and 800 mg/kg, while a control sample received no addition. The bacterial count was determined in a conventional manner in the resultant pastes immediately after their preparation, after 24 h and after 48 h of storage at room temperature.
Effect on Escherichia coli O157:H7 (approximately 6×10^5/g)
A paste of whey powder prepared in the manner described was inoculated with approximately 6×10^5/g of E. coli O0157:H7 EDL 933. […] At an addition of 800 mg of LAE/kg, the bacterial count after 48 h was less than 10% of the value on addition.
Effect on Escherichia coli O157:H7 (approximately 3×1 0^3/g)
A paste of whey powder prepared in the manner described was inoculated with approximately 3×10^3/g of E. coli O0157:H7 EDL 933. […] At an addition of 800 mg of LAE/kg, the bacterial count after 48 h was less than 10% of the value on addition.

Assay [1] deals with L. monocytogenes ATCC 13311. The assay can be described thus: Bacterial count in whey powder paste inoculated with Listeria monocytogenes, with LAE added. It is filed as cell-based. The settings on record: whey powder paste pH 6.1-6.2; for bacterial count after 48 h as % of the value on addition: 800 mg of LAE/kg, 48 h storage at room temperature; for change of bacterial count versus control sample without LAE: LAE 200, 400 and 800 mg/kg, after 24 h, continued with longer storage at room temperature. How it is done: as §1
Effect on Listeria monocytogenes (approximately 5×10^5/g)
A paste of whey powder prepared in the manner described was inoculated with approximately 5×10^5/g L. monocytogenes ATCC 13311. […] At an addition of 800 mg of LAE/kg, the bacterial count after 48 h was approximately 15% of the value on addition.
Effect on Listeria monocytogenes (approximately 2×10^3/g)
A paste of whey powder prepared in the manner described was inoculated with approximately 2×10^3/g L. monocytogenes ATCC 13311. […] At an addition of 800 mg of LAE/kg, the bacterial count after 48 h was less than 20% of the value on addition.

For assay [2], the system named is S. typhimurium NCTC 10527. The assay can be described thus: Bacterial count in whey powder paste inoculated with Salmonella typhimurium, with LAE added. The settings on record: inoculum approximately 3×10^4/g, whey powder paste pH 6.1-6.2. It is filed as cell-based. The method, then: as §1
Effect on Salmonella typhimurium (approximately 3×10^4/g)
A paste of whey powder prepared in the manner described was inoculated with approximately 3×10^4/g S. typhimurium NCTC 10527.

[3] abbreviates: inoculum approximately 3×10^3/g.
Setting [4] is: inoculum approximately 6×10^5/g.
[5] abbreviates: inoculum approximately 2×10^3/g.
Setting [6] is: inoculum approximately 5×10^5/g.

`CCCCCCCCCCCC(=O)N[C@@H](CCCNC(=N)N)C(=O)OCC` [LAE, lauroylarginine ethyl ester]: the “bacterial count after 48 h as % of the value on addition” value with E. coli O0157:H7 EDL 933 (setting [3]) is given as “less than 10%”; in the assay on E. coli O0157:H7 EDL 933 (setting [4]) it was “less than 10%”; in assay [1] (setting [5]), “less than 20%”; in assay [1] (setting [6]), “approximately 15%”. The “change of bacterial count versus control sample without LAE” value with E. coli O0157:H7 EDL 933 (setting [3]) is on record as “much more marked concentration-dependent decrease”; with E. coli O0157:H7 EDL 933 (setting [4]), “marked concentration-dependent decrease”; in assay [1] (setting [5]), “more marked concentration-dependent decrease”; in assay [1] (setting [6]) it was “more marked concentration-dependent decrease”; in assay [2] (LAE 200, 400 and 800 mg/kg, after 24 h, continued with longer storage at room temperature), “much more marked concentration-dependent decrease”. For the same compound, in assay [2] (800 mg of LAE/kg, 48 h storage at room temperature), the “detectability of test bacteria after 48 h” value is “no longer detectable”.

The values above are taken from patent publication US20030049305A1, “Preserved feedstuffs and process for their production” (priority 2001, published 2003).
